# Read-outs that look alike come from different tables or passages of the source. Marks after values point to notes of the source that are not given here.
# Legend:
# [1] = molecular target: phosphodiesterase 3; experiment: Phosphodiesterase 3 activity; assay type: biochemical; conditions: read-out: IC50, phosphodiesterase 3
# [2] = test system: bacteria; experiment: Bacterial reverse mutation assay; assay type: cell-based
# [3] = In vitro induction of chromosome aberrations; assay type: cell-based
# [4] = test system: rat; experiment: In vivo micronucleus test in rat
# [5] = test system: dogs; experiment: Single oral dose-escalation study in dogs; assay type: in vivo, dog; conditions: at 30 mg/kg/day
# [6] = 4-week study in dogs; assay type: in vivo, dog; conditions: dog
# [7] = test system: dogs; experiment: 4-week study in dogs; assay type: in vivo, dog; conditions: dogs
# [8] = First-in-human pharmacokinetics in healthy volunteers; assay type: in vivo; conditions: for Mean t1/2 / AUC(0-inf) / AUC(0-t) / Cmax / Tmax / Vd/F: healthy volunteers; for Mean t1/2 / AUC(0-inf) / AUC(0-t) / Cmax / Tmax / half-life / Vd/F: [SD]; for AUC(0-inf) / AUC(0-t) / Cmax / Tmax / half-life / Vd/F: human, plasma, po; for AUC(0-inf): Mean AUC0−inf; for AUC(0-t): Mean AUC0−t; for Cmax: Mean Cmax; for Tmax: Mean Tmax; for half-life: Mean t1/2, healthy volunteers
# [9] = test system: healthy volunteers; experiment: Intensive ECG monitoring in healthy volunteers; assay type: in vivo, human
# [10] = test system: plasma cytokines, chemokines, and growth factors; assay type: in vivo, human; conditions: IL‐1β, IL‐2, IL‐4, IL‐6, IL‐8, IFNγ, TNFα; IL‐15, IL‐17A; MCP‐1, and IP‐10
# [11] = Plasma protein binding; assay type: in vitro ADME, human, dog
# [12] = test system: healthy volunteers; conditions: for AEs grade 1–2 CTCAE, % / AEs grade 3 CTCAE: ↑CK, % / Gastrointestinal disorders, % / Investigations, % / ↑ALT (%) / ↑CK (%) / ↓WBC (%) / SAEs: seizure (%) / Diarrhea, %: number of subjects (%); for Diarrhea, %: grade 1–2
# [13] = test system: mouse model of CML‐BC; conditions: cited from earlier work
# [14] = test system: stem cells derived from patients with CML‐BC or Philadelphia chromosome–positive acute lymphoblastic leukemia; conditions: in combination with tyrosine kinase inhibitors; cited from earlier work
# [15] = test system: pro‐inflammatory cytokines, chemokines, and growth factors; conditions: in vivo; cited from earlier work
# [16] = 10 mg, oral 10 mg single dose FASTED (N = 16)
# [17] = 10 mg, oral 10 mg single dose FED (N = 9)
# [18] = 20 mg, oral 20 mg single dose FASTED (N = 14)
# [19] = 10 mg single dose FASTED (N = 16)
# [20] = 20 mg single dose FASTED (N = 14)
compound,measurement,setting,value
N#Cc1ccc(-c2cnc3ccc(-c4ccc(C(=O)N5CCOCC5)cc4)cn23)cc1 [ETC‐206],IC50,[1],2250 nM
same,mutagenicity,[2],did not show any mutagenicity
same,mutagenicity,[3],did not show any mutagenicity
same,mutagenicity,[4],did not show any mutagenicity
same,"cardiovascular parameters (blood pressure, heart rate, cardiac repolarization)",[5],affected cardiovascular (CV) parameters
same,NOAEL at 4 weeks,[6]; in vivo,3 mg/kg/day
same,AUC(0-t),"[6]; plasma, 3 mg/kg/day",7230 ng·h/mL
same,Cmax,"[6]; plasma, 3 mg/kg/day",935 ng/mL
same,highest unbound mean free fraction AUC0−last at NOAEL,[7],670 ng·h/mL
same,highest unbound mean free fraction Cmax at NOAEL,[7],11.8 ng/mL
same,bile duct proliferation,"[7]; 4 weeks, medium and high doses",minimal to mild
same,"liver enzymes (ALT, alkaline phosphatase, gamma glutamyltransferase)","[7]; 4 weeks, medium and high doses",increase in liver enzymes
same,dose proportionality,[8]; 10 to 20 mg single doses in fasted condition,showed dose proportionality
same,Mean t1/2,[8]; oral 10 mg single dose FASTED (N = 16),22.95 [5.63] hour
same,Mean t1/2,[8]; oral 10 mg single dose FED (N = 9),27.57 [5.68] hour
same,AUC(0-inf),[8]; [16],24400 ng·h/mL
same,AUC(0-inf),[8]; [17],30000 ng·h/mL
same,AUC(0-t),[8]; [16],21900 ng·h/mL
same,AUC(0-t),[8]; [17],28700 ng·h/mL
same,Cmax,[8]; [16],927 ng/mL
same,Tmax,[8]; [16],1.11 h
same,half-life,[8]; [16],~23 h
same,half-life,[8]; [17],~28 h
same,Vd/F,[8]; [16],13.9 L
same,AUC(0-inf),[8]; [18],60300 ng·h/mL
same,AUC(0-t),[8]; [18],57800 ng·h/mL
same,Cmax,[8]; [18],1950 ng/mL
same,Tmax,[8]; [18],1 h
same,half-life,[8]; [18],25.8 h
same,Vd/F,[8]; [18],12.5 L
same,relationship between ETC‐206 plasma concentrations and changes from baseline of QTcF,"[9]; mixed effects regression model, flat slope (P = 0.7) of each dose and condition",no relationship
same,proarrhythmic risks,[9]; range of doses explored (10 and 20 mg single doses),no evidence for ETC‐206 proarrhythmic risks
same,"activity on plasma cytokines, chemokines, and growth factors",[10],did not show any activity
same,plasma protein binding in humans compared with dogs,[11],higher
same,serious adverse events related to ETC‐206,[12]; general safety,did not show any serious adverse events
same,"AEs grade 1–2 CTCAE, %",[12]; [19],9 (56)
same,"AEs grade 3 CTCAE: ↑CK, %",[12]; [19],0
same,"Gastrointestinal disorders, %",[12]; [19],4 (25)
same,"Investigations, %",[12]; [19],5 (31)
same,↑ALT (%),[12]; [19],1 (6)
same,↑CK (%),[12]; [19],1 (6)
same,↓WBC (%),[12]; [19],3 (19)
same,SAEs: seizure (%),"[12]; 10 mg single dose FASTED (N = 16), not drug-related",1 (6) ^a
same,"AEs grade 1–2 CTCAE, %",[12]; 10 mg single dose FED (N = 9),9 (100)
same,"AEs grade 3 CTCAE: ↑CK, %",[12]; 10 mg single dose FED (N = 9),0
same,"Gastrointestinal disorders, %",[12]; 10 mg single dose FED (N = 9),2 (22)
same,"Investigations, %",[12]; 10 mg single dose FED (N = 9),1 (11)
same,SAEs: seizure (%),[12]; 10 mg single dose FED (N = 9),0
same,↑ALT (%),[12]; 10 mg single dose FED (N = 9),0
same,↑CK (%),[12]; 10 mg single dose FED (N = 9),0
same,↓WBC (%),[12]; 10 mg single dose FED (N = 9),1 (11)
same,"AEs grade 1–2 CTCAE, %",[12]; [20],11 (79)
same,"Gastrointestinal disorders, %",[12]; [20],3 (21)
same,"Investigations, %",[12]; [20],1 (7)
same,SAEs: seizure (%),[12]; [20],0
same,↑ALT (%),[12]; [20],0
same,↑CK (%),[12]; [20],0
same,↓WBC (%),[12]; [20],0
same,"AEs grade 3 CTCAE: ↑CK, %","[12]; 20 mg single dose FASTED (N = 14), not drug-related",1 (7) ^b
same,"Diarrhea, %",[12]; [19],3 (19)
same,"Diarrhea, %",[12]; 10 mg single dose FED (N = 9),2 (22) ^f
same,"Diarrhea, %",[12]; [20],3 (21) ^g
same,maximum administered dose,"[12]; single dose, fasted, no dose‐limiting toxicity, not the maximum tolerated dose",20 mg
same,tumor growth,[13]; in combination with tyrosine kinase inhibitors,inhibited tumor growth
same,antitumor activity,[13]; single agent,no antitumor activity
same,survival of stem cells,[14],impeded survival
same,"plasma levels of pro‐inflammatory cytokines, chemokines, and growth factors",[15],decrease plasma levels

# Reference: publication PMC6951458 (Clinical and Translational Science, 2019)
